Data set [1] deals with blood glucose response. Kind of data set: A Glycemic Response Test. In kind it is in vivo. The settings on record: 30 grams in water after fast; blood glucose every 15 minutes for 90 minutes.
Method: Under an Institutional Review Board approved, controlled clinical trial, subjects undergo a pre-test fast for at least 20 hours and then consume 30 grams of glucose, or an equal amount of sweetener in water. Blood glucose measurements are then made every 15 minutes for 90 minutes and the blood glucose response is recorded. A sweetener is considered to pass the test when then blood glucose response is less than 5% of glucose.
The test system of data set [2] is blood glucose response. Kind of data set: A Repression Test. In kind it is in vivo. More on the design: key: PASS: pass the repression test when then blood glucose response is much lower than expected for the combination of. The conditions noted are these: product (e.g. cupcake) with other nutritive carbohydrates.
Method: Under controlled study scenario subjects fast, then consume a product (e.g. a cupcake) that contains other nutritive carbohydrates and the glycemic response is assessed by established methods. The glycemic response to the nutritive carbohydrates is compared to the glycemic response to the nutritive carbohydrates in the presence of the sweetener or sugar.
Data set [3] deals with blood glucose level. The conditions noted are these: values used for the expected GI; cited from earlier work.
The subject of data set [4] is blood glucose level. Nature of the data set: Glycemic index (GI) of NSC formulations (Example 2). The data set is classed as in vivo, human. How it is done: Glycemic index can be measured by any suitable methodology. For example, to determine a food's GI value, measured portions of the food containing 50 grams of available carbohydrate (or 25 grams of available carbohydrate for foods that contain lower amounts of carbohydrate) may be fed to 10 healthy people after an overnight fast. Finger-prick blood samples can be taken at 15-30 minute intervals over the next two hours. These blood samples can be used to construct a blood sugar response curve for the two hour period. The incremental area under the curve (iAUC) is calculated to reflect the total rise in blood glucose levels after eating the test food. The GI value is calculated by dividing the iAUC for the test food by the iAUC for the reference food (same amount of glucose) and multiplying by 100. The average of the GI ratings from all ten subjects is designated as the GI for that food. […] The effect on the GI response for different NSC formulations was assessed. Four formulations, designated F1-F4, containing tagatose, monkfruit, stevia extract, erythritol, xanthan gum and either maltitol or lactitol were prepared as indicated in Table 1. The glycemic index for each formulation was calculated based on the glycemic index for the individual components taking into account the weight percent of the component in the formulation. Monkfruit, xanthan gum, and stevia extract have a glycemic index of 0, erythritol has a glycemic index of 1 while tagatose has a glycemic index of 3. Maltitol has a glycemic index of 35 while lactitol has a glycemic index of 5. Fifteen subjects were evaluated and the GI calculated as described previously herein.

The nature of another data set: The Caramelization Test. In kind it is physicochemical. The settings on record: 1 cup sweetener with 1/2 cup water until it browns. The source says:
1 cup of caramelized sugar or 1 cup of sweetener is mixed with ½ cup of water and swirled to mix until it browns. A sweetener is considered to pass the test and be enough like sugar when it browns within 25% of the time when the sugar browns.

Data set [5] is described as follows: Acute randomized controlled trial: adverse events symptom score. The data set is classed as in vivo, human. How it is done: An acute randomized controlled trial was carried out to investigate the effects of an NSC of the type disclosed herein on postprandial insulin, glucose and fructose responses.
Subjects (N=15) men and non-pregnant, non-lactating women, 18-75 years of age each with a BMI of 18-40 kg/m^2 inclusive and normal glycemia and (i) fasting serum glucose <126 mg/dl (<7.0 mmol/l) (or in whole blood ≦6.1 mmol/L); (ii) blood pressure <130/85; (iii) no prescription drugs within 1 month of the first study visit after screening except for the birth control pill, lipid lowering medications or small doses of anxiolytics/sedatives to assist sleeping; and (iv) no major illness or surgery requiring hospitalization within 3 months of the first study visit after screening.
The test foods consisted of 2 isovolumetric beverages: 30 g sucrose control and 30 g of sweetener blend dissolved in 500 ml water. The sucrose test meal acted as the control. Test meals were administered in a randomized order.
Adverse events reported following ingestion of the meals containing either an NSC of the type disclosed herein or sucrose included bloating, belching, nausea, diarrhea and flatulence. Each issue was scored and record for the time period indicated in Table 5 which provides the symptom score (mm) for: Bloating, Belching, Nausea, Diarrhea and Flatulence at 0 min, 120 min, before Dinner (D) and before breakfast (B).

The structures appear in SMILES notation.

In the case of `O=C(CO)C(O)C(O)C(O)CO` (stereo not shown) [Allulose], the Glycemic test entry with blood glucose response [1] is on record as “PASS (pass the test when then blood glucose response is less than 5% of glucose)”. The Repression test result with blood glucose response [2] is “PASS”.
On to `OC[C@@H](O)[C@@H](O)CO` [Erythritol, erythritol], for which the Glycemic test entry with blood glucose response [1] was “PASS (pass the test when then blood glucose response is less than 5% of glucose)”. The Repression test entry in the data set with blood glucose response [2] was “FAIL”. For the same compound, the “glycemic index of individual component” value with blood glucose level [3] is 1.
Consider `OC[C@@H](O)[C@@H](O[C@H]1O[C@H](CO)[C@@H](O)[C@H](O)[C@H]1O)[C@H](O)[C@@H](O)CO` [Maltitol, maltitol], for which, in the data set on blood glucose level [3], the “glycemic index of individual component” value is recorded as 35.
As for `OC[C@H]1O[C@@](CO)(O[C@H]2O[C@H](CO)[C@@H](O)[C@H](O)[C@H]2O)[C@@H](O)[C@@H]1O` [Sugar, sucrose], the “Expected GI” value in the data set with blood glucose level [4] (calculated from GI of individual components and their weight percent) was 65. In addition, in the data set with blood glucose level [4] (fifteen subjects), the “Observed GI” value was determined as 65. In addition, in the data set on blood glucose level [4] (sweetener ingredient of the cake mix, Table 2), the “Glycemic Index” value was 65 for sugar. Besides, the Caramelization test entry in “The Caramelization Test” is “PASS (pass the test and be enough like sugar when it browns within 25% of the time when the sugar browns)”. The Glycemic test result with blood glucose response [1] is “FAIL”. Further, in the data set on blood glucose response [2], the Repression test entry is recorded as “FAIL”. In data set [5] (0 min), this compound registered a Belching symptom score of 0.60 mm, a Bloating symptom score of 7.93 mm, a Diarrhea symptom score of 0.27 mm and a Flatulence symptom score of 1.47 mm. In data set [5] (0 min), this compound registered a Nausea symptom score of 0.33 mm. For the same compound, in data set [5] (120 min), the Belching symptom score came to 0.40 mm, the Bloating symptom score amounted to 4.67 mm, the Diarrhea symptom score stood at 0.80 mm and the Flatulence symptom score turned out to be 1.40 mm. This compound also came in with a Nausea symptom score in data set [5] (120 min) of 1.87 mm. In data set [5] (before Dinner (D)), this compound had a Belching symptom score of 1.79 mm, a Bloating symptom score of 5.43 mm, a Diarrhea symptom score of 6.93 mm and a Flatulence symptom score of 8.93 mm. In addition, the Nausea symptom score in data set [5] (before Dinner (D)) is 2.57 mm. In data set [5] (before breakfast (B)), this compound registered a Belching symptom score of 0.57 mm, a Bloating symptom score of 5.71 mm, a Diarrhea symptom score of 5.79 mm and a Flatulence symptom score of 7.50 mm. In data set [5] (before breakfast (B)), this compound gave a Nausea symptom score of 0.57 mm.
In the case of `O=C(CO)[C@@H](O)[C@@H](O)[C@H](O)CO` [Tagatose, (3S,4S,5R)-1,3,4,5,6-pentahydroxy-hexan-2-one], the Caramelization test result in “The Caramelization Test” is reported as “FAIL-”. The Glycemic test entry in the data set with blood glucose response [1] is “PASS (pass the test when then blood glucose response is less than 5% of glucose)”. For the same compound, the Repression test entry in the data set on blood glucose response [2] was “FAIL”. For the same compound, the “glycemic index of individual component” value with blood glucose level [3] is 3.
Take `OC[C@@H](O)[C@@H](O[C@@H]1O[C@H](CO)[C@H](O)[C@H](O)[C@H]1O)[C@H](O)[C@@H](O)CO` [lactitol]: the “glycemic index of individual component” value with blood glucose level [3] is given as 5.

(Values after patent US20170028005A1, “NATURAL SWEETENER” (NATGOOD IP, LLC, priority 2014, published 2017).)
